Assay results as given in patent US10800746B2, “Oxoalkyl-substituted phenyltriazole derivatives and uses thereof” (BAYER PHARMA AKTIENGESELLSCHAFT, priority 2016, dated 2020).

Legend:
human V1a receptor = human V1a receptor (Homo sapiens (Human), UniProt P37288); test: Cellular in vitro assay for vasopressin receptor activity, V1a receptor cell line (aequorin luminescence); format: cell-based; conditions: CHO cell line transfected with human V1a receptor; [Arg8]-vasopressin at EC50; read-out: IC50 hV1a
Experimental: (§1) The identification of agonists and antagonists of the V1a and V2 vasopressin receptors from humans, rats and dogs as well as the quantification of the activity of the compounds of the invention is carried out using recombinant cell lines. These cell lines originally derive from a hamster's ovary epithelial cell (Chinese Hamster Ovary, CHO K1, ATCC: American Type Culture Collection, Manassas, Va. 20108, USA). The test cell lines constitutively express the human, rat or dog V1a or V2 receptors. In case of the Gαq-coupled V1a receptors, cells are also stably transfected with a modified form of the calcium-sensitive photoproteins aequorin (human and rat V1a) or obelin (dog V1a), which, after reconstitution with the cofactor coelenterazine, emit light when there are increases in free calcium concentrations [Rizzuto R, Simpson A W, Brini M, Pozzan T, Nature 358, 325-327 (1992); Illarionov B A, Bondar V S, Illarionova V A, Vysotski E S, Gene 153 (2), 273-274 (1995)]. The resulting vasopressin receptor cells react to stimulation of the recombinantly expressed V1a receptors by intracellular release of calcium ions, which can be quantified by the resulting photoprotein luminescence. The Gs-coupled V2 receptors are stably transfected into cell lines expressing the gene for firefly luciferase under control of a CRE-responsible promoter. Activation of V2 receptors induces the activation of the CRE-responsive promoter via cAMP increase, thereby inducing the expression of firefly luciferase. The light emitted by photoproteins of V1a cell lines as well as the light emitted by firefly luciferase of V2 cell lines corresponds to the activation or inhibition of the respective vasopressin receptor. The bioluminescence of the cell lines is detected using a suitable luminometer [Milligan G, Marshall F, Rees S, Trends in Pharmacological Sciences 17, 235-237 (1996)].
On the day before the assay, the cells are plated out in culture medium (DMEM/F12, 2% FCS, 2 mM glutamine, 10 mM HEPES, 5 μg/ml coelenterazine) in 384-well microtiter plates and kept in a cell incubator (96% humidity, 5% v/v CO2, 37° C.). On the day of the assay, test compounds in various concentrations are placed for 10 minutes in the wells of the microtiter plate before the agonist [Arg^8]-vasopressin at EC50 concentration is added. The resulting light signal is measured immediately in the luminometer.

human V2 receptor = human V2 receptor (Homo sapiens (Human), UniProt P30518); test: Cellular in vitro assay for vasopressin receptor activity, V2 receptor cell line (CRE-luciferase); format: cell-based; conditions: CHO cell line transfected with human V2 receptor; [Arg8]-vasopressin at EC50; read-out: IC50 hV2
Experimental: as §1
On the day before the assay, the cells are plated out in culture medium (DMEM/F12, 2% FCS, 2 mM glutamine, 10 mM HEPES) in 384-well microtiter plates and kept in a cell incubator (96% humidity, 5% v/v CO2, 37° C.). […] Upon addition of the cell lysis reagent Triton™ and the substrate luciferin, luminescence of firefly luciferase is measured in a luminometer.

Wistar rats = test: Diuresis investigations in conscious rats kept in metabolism cages; format: in vivo; conditions: rat
Experimental: Wistar rats (220-450 g body weight) are kept with free access to feed (Altromin) and drinking water. During the experiment, the animals are kept with free access to drinking water for 4 to 8 or up to 24 hours individually in metabolism cages suitable for rats of this weight class (Tecniplast Deutschland GmbH, D-82383 Hohenpeißenberg). At the beginning of the experiment, the animals are administered the test substance in a volume of 1 to 3 ml/kg body weight of a suitable solvent by means of gavage into the stomach. Control animals only receive solvent. Controls and substance tests are carried out in parallel on the same day. Control groups and substance-dose groups each consist of 4 to 8 animals. During the experiment, the urine excreted by the animals is collected continuously in a receiver at the base of the cage. The volume of urine per time unit is determined separately for each animal, and the concentration of urinary electrolytes is measured by standard methods of flame photometry. Before the beginning of the experiment, the body weight of the individual animals is determined.

Chain of human V1a receptor (P37288 whole entry): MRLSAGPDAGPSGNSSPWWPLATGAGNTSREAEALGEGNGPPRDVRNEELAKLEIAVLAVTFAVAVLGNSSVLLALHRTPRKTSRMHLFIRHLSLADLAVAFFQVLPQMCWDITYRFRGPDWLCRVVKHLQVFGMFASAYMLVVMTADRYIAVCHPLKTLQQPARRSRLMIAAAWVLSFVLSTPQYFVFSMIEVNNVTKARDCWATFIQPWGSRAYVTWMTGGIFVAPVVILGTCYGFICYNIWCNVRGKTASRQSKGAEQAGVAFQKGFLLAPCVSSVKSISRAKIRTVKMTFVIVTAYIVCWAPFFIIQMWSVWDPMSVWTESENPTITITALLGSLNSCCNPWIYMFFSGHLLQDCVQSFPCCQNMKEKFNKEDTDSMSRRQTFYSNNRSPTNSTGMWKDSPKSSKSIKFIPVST
Chain of human V2 receptor (P30518 whole entry): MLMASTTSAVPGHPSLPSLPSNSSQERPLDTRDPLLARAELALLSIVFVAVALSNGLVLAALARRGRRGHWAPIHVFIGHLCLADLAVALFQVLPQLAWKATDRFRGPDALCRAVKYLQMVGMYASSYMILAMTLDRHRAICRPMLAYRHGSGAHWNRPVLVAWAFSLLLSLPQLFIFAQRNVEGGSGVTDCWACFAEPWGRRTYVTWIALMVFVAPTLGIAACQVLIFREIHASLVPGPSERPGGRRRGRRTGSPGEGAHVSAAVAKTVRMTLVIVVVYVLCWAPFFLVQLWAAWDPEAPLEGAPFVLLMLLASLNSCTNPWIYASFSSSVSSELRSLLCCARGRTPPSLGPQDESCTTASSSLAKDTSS

CC(=O)c1nc(Cn2nc(-c3ccc(Cl)cc3)n(CC(=O)C(F)(F)F)c2=O)nn1-c1cccc(Cl)c1 [Example 4, 2-{[5-Acetyl-1-(3-chlorophenyl)-1H-1,2,4-triazol-3-yl]methyl}-5-(4-chlorophenyl)-4-(3,3,3-trifluoro-2-oxopropyl)-2,4-dihydro-3H-1,2,4-triazol-3-one]
IC50 (human V1a receptor): 123 nM | IC50 (human V2 receptor): 7.7 nM

O=c1n(Cc2cn(-c3ccccc3Cl)nn2)nc(-c2ccc(Cl)cc2)n1C[C@H](O)C(F)(F)F [Example No. WO 2011/104322 101]
Urinary volume [% vs. control = 100%] (Wistar rats; 0.3 mg/kg p.o.): 111 % vs. control = 100% | Urinary volume [% vs. control = 100%] (Wistar rats; 3.0 mg/kg p.o.): 255 % vs. control = 100%

CC(=O)c1nc(Cn2nc(-c3ccc(Cl)cc3)n(C[C@H](O)C(F)(F)F)c2=O)nn1-c1ccccc1Cl [Example 3, 2-{[5-Acetyl-1-(2-chlorophenyl)-1H-1,2,4-triazol-3-yl]methyl}-5-(4-chlorophenyl)-4-[(2S)-3,3,3-trifluoro-2-hydroxypropyl]-2,4-dihydro-3H-1,2,4-triazol-3-one]
IC50 (human V1a receptor): 0.5 nM | IC50 (human V2 receptor): 4.9 nM | Urinary volume [% vs. control = 100%] (Wistar rats; 0.3 mg/kg p.o.): 172 % vs. control = 100% | Urinary volume [% vs. control = 100%] (Wistar rats; 3.0 mg/kg p.o.): 679 % vs. control = 100%

O=C(O)Cn1nc(Cn2nc(-c3ccc(Cl)cc3)n(C[C@H](O)C(F)(F)F)c2=O)nc1-c1ccccc1Cl [Example No. WO 2011/104322 60]
Urinary volume [% vs. control = 100%] (Wistar rats; 0.3 mg/kg p.o.): 96 % vs. control = 100% | Urinary volume [% vs. control = 100%] (Wistar rats; 3.0 mg/kg p.o.): 84 % vs. control = 100%

NC(=O)Cn1nc(Cn2nc(-c3ccc(Cl)cc3)n(C[C@H](O)C(F)(F)F)c2=O)nc1-c1ccccc1Cl [Example No. WO 2011/104322 68]
Urinary volume [% vs. control = 100%] (Wistar rats; 0.3 mg/kg p.o.): 87 % vs. control = 100% | Urinary volume [% vs. control = 100%] (Wistar rats; 3.0 mg/kg p.o.): 121 % vs. control = 100%

CC(=O)c1nc(Cn2nc(-c3ccc(Cl)cc3)n(C[C@H](O)C(F)(F)F)c2=O)nn1-c1cccc(F)c1 [Example 2, 2-{[5-Acetyl-1-(3-fluorophenyl)-1H-1,2,4-triazol-3-yl]methyl}-5-(4-chlorophenyl)-4-[(2S)-3,3,3-trifluoro-2-hydroxypropyl]-2,4-dihydro-3H-1,2,4-triazol-3-one]
IC50 (human V1a receptor): 7.5 nM | IC50 (human V2 receptor): 6.2 nM

CC(=O)c1nc(Cn2nc(-c3ccc(Cl)cc3)n(C[C@H](O)C(F)(F)F)c2=O)nn1-c1cccc(Cl)c1 [Example 1, 2-{[5-Acetyl-1-(3-chlorophenyl)-1H-1,2,4-triazol-3-yl]methyl}-5-(4-chlorophenyl)-4-[(2S)-3,3,3-trifluoro-2-hydroxypropyl]-2,4-dihydro-3H-1,2,4-triazol-3-one]
IC50 (human V1a receptor): 34.5 nM | IC50 (human V2 receptor): 2.3 nM | Urinary volume [% vs. control = 100%] (Wistar rats; 0.3 mg/kg p.o.): 344 % vs. control = 100% | Urinary volume [% vs. control = 100%] (Wistar rats; 3.0 mg/kg p.o.): 554 % vs. control = 100%

COC(=O)Cn1nc(-c2ccccc2Cl)nc1Cn1nc(-c2ccc(Cl)cc2)n(C[C@H](O)C(F)(F)F)c1=O [Example No. WO 2011/104322 56]
IC50 (human V1a receptor): 1.3 nM | IC50 (human V2 receptor): 6.7 nM | Urinary volume [% vs. control = 100%] (Wistar rats; 0.3 mg/kg p.o.): 128 % vs. control = 100% | Urinary volume [% vs. control = 100%] (Wistar rats; 3.0 mg/kg p.o.): 85 % vs. control = 100%

CC(O)c1nc(Cn2nc(-c3ccc(Cl)cc3)n(CC(=O)C(F)(F)F)c2=O)nn1-c1cccc(Cl)c1 [Example 5, 5-(4-Chlorophenyl)-2-({1-(3-chlorophenyl)-5-[(1S,R)-1-hydroxyethyl]-1H-1,2,4-triazol-3-yl}methyl)-4-(3,3,3-trifluoro-2-oxopropyl)-2,4-dihydro-3H-1,2,4-triazol-3-one]
IC50 (human V1a receptor): 55 nM | IC50 (human V2 receptor): 2.8 nM

O=c1n(Cc2cn(-c3ccccc3Cl)cn2)nc(-c2ccc(Cl)cc2)n1C[C@H](O)C(F)(F)F [Example No. WO 2011/104322 110]
Urinary volume [% vs. control = 100%] (Wistar rats; 0.3 mg/kg p.o.): 114 % vs. control = 100% | Urinary volume [% vs. control = 100%] (Wistar rats; 3.0 mg/kg p.o.): 274 % vs. control = 100%

O=c1n(Cc2nnc(-c3ccccc3Cl)[nH]2)nc(-c2ccc(Cl)cc2)n1C[C@H](O)C(F)(F)F [Example No. WO 2011/104322 54]
Urinary volume [% vs. control = 100%] (Wistar rats; 0.3 mg/kg p.o.): 85 % vs. control = 100% | Urinary volume [% vs. control = 100%] (Wistar rats; 3.0 mg/kg p.o.): 188 % vs. control = 100%
